In PubChem BioAssay AID330 (DTP/NCI, 2004):
Where “and” joins values, the source holds several entries; their conditions need not be identical. Identical values can stand only once. Inconclusive results and toxic doses are left out.

System: P388 leukemia ip, CD2F1 mice, survival T/C
Assay: NCI In Vivo Anticancer Drug Screen. Data for tumor model P388 Leukemia (intraperitoneal) in CD2F1 (CDF1) mice
Settings: endpoint: median survival time, higher = longer survival
How it was run: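 Mice carrying the transplanted tumor received test compound or vehicle. Survival was recorded in each group, and the value is the treated-group measurement divided by that of the vehicle-treated control group.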

[1] = dose: 100.0 mg/kg/injection, schedule: Q01DX001 (ip), vehicle: saline with Tween-80
[2] = dose: 200.0 mg/kg/injection, schedule: Q01DX001 (ip), vehicle: saline with Tween-80
[3] = dose: 25.0 mg/kg/injection, schedule: Q01DX005 (ip), vehicle: Klucel (hydroxypropylcellulose) (HPC)
[4] = dose: 100.0 mg/kg/injection, schedule: Q01DX009 (ip), vehicle: saline with Tween-80
[5] = dose: 200.0 mg/kg/injection, schedule: Q01DX009 (ip), vehicle: saline with Tween-80
[6] = dose: 400.0 mg/kg/injection, schedule: Q01DX009 (ip), vehicle: saline with Tween-80
[7] = dose: 25.0 mg/kg/injection, schedule: Q01DX009 (ip), vehicle: saline
[8] = dose: 50.0 mg/kg/injection, schedule: Q01DX009 (ip), vehicle: saline
[9] = dose: 100.0 mg/kg/injection, schedule: Q01DX009 (ip), vehicle: saline
[10] = dose: 200.0 mg/kg/injection, schedule: Q01DX009 (ip), vehicle: saline
[11] = dose: 50.0 mg/kg/injection, schedule: Q01DX005 (ip), vehicle: Klucel (hydroxypropylcellulose) (HPC)
[12] = dose: 60.0 mg/kg/injection, schedule: Q01DX005 (ip), vehicle: Klucel (hydroxypropylcellulose) (HPC)
[13] = dose: 120.0 mg/kg/injection, schedule: Q01DX005 (ip), vehicle: Klucel (hydroxypropylcellulose) (HPC)
[14] = dose: 240.0 mg/kg/injection, schedule: Q01DX005 (ip), vehicle: Klucel (hydroxypropylcellulose) (HPC)
[15] = dose: 100.0 mg/kg/injection, schedule: Q04DX002 (ip), vehicle: saline with Tween-80
[16] = dose: 200.0 mg/kg/injection, schedule: Q04DX002 (ip), vehicle: saline with Tween-80
[17] = dose: 100.0 mg/kg/injection, schedule: Q01DX005 (ip), vehicle: Klucel (hydroxypropylcellulose) (HPC)
[18] = dose: 200.0 mg/kg/injection, schedule: Q01DX005 (ip), vehicle: Klucel (hydroxypropylcellulose) (HPC)
[19] = dose: 25.0 mg/kg/injection, schedule: Q04DX002 (ip), vehicle: saline with Tween-80
[20] = dose: 50.0 mg/kg/injection, schedule: Q04DX002 (ip), vehicle: saline with Tween-80
[21] = dose: 60.0 mg/kg/injection, schedule: Q01DX005 (ip), vehicle: saline
[22] = dose: 120.0 mg/kg/injection, schedule: Q01DX005 (ip), vehicle: saline
[23] = dose: 240.0 mg/kg/injection, schedule: Q01DX005 (ip), vehicle: saline
[24] = dose: 50.0 mg/kg/injection, schedule: Q01DX005 (ip), vehicle: saline with Tween-80
[25] = dose: 200.0 mg/kg/injection, schedule: Q01DX005 (ip), vehicle: saline with Tween-80
[26] = dose: 50.0 mg/kg/injection, schedule: Q01DX009 (ip), vehicle: saline with Tween-80

Structure (SMILES): COC(=O)C1CC=C(c2ccccc2)CNC1 (centres undefined)
- T/C [1]: 93 % of control
- T/C [2]: 94 % of control

Structure (SMILES): CCCn1c(Cl)c(/C=N\Nc2cccc([N+](=O)[O-])c2)c2ccccc21
- T/C [1]: 91 % of control
- T/C [2]: 92 % of control
- T/C (dose: 400.0 mg/kg/injection, schedule: Q01DX001 (ip), vehicle: saline with Tween-80): 91 % of control

Structure (SMILES): O=C1CC2C(O)OC(O)C(C1)N2C(=O)OCC(Cl)(Cl)Cl (centres undefined)
- T/C (dose: 6.25 mg/kg/injection, schedule: Q01DX005 (ip), vehicle: Klucel (hydroxypropylcellulose) (HPC)): 106 % of control
- T/C (dose: 12.5 mg/kg/injection, schedule: Q01DX005 (ip), vehicle: Klucel (hydroxypropylcellulose) (HPC)): 106 % of control
- T/C [3]: 114 % of control

Structure (SMILES): COc1cc(/C=C(/C)[N+](=O)[O-])cc(Br)c1OC
- T/C (dose: 25.0 mg/kg/injection, schedule: Q04DX003 (ip), vehicle: saline with Tween-80): 108 % of control
- T/C (dose: 50.0 mg/kg/injection, schedule: Q04DX003 (ip), vehicle: saline with Tween-80): 109 % of control
- T/C (dose: 100.0 mg/kg/injection, schedule: Q04DX003 (ip), vehicle: saline with Tween-80): 109 % of control

Structure (SMILES): c1ccc2cc(N3CCOCC3)ccc2c1
- T/C [4]: 116 % of control
- T/C [5]: 119 % of control
- T/C [6]: 116 % of control

Structure (SMILES): CC(=O)OCC1OC([n+]2cccc(C(N)=O)c2)C(OC(C)=O)C(OC(C)=O)C1OC(C)=O (centres undefined)
- T/C [7]: 100 % of control
- T/C [8]: 101 % of control
- T/C [9]: 100 % of control
- T/C [10]: 103 % of control

Structure (SMILES): CCCn1c(O)c(C=N)c(=O)n(CCC)c1=O
- T/C [4]: 95 % of control
- T/C [5]: 100 % of control
- T/C [6]: 100 % of control

Structure (SMILES): CC1OC(O[C@H]2CC[C@]3(C=O)[C@H]4CC[C@]5(C)[C@@H](C6=COC(=O)C6)CC[C@]5(O)[C@@H]4CC[C@]3(O)C2)C(O)C(O)C1OC1OC(CO)C(O)C(O)C1O (some centres undefined)
- T/C [3]: 101 % of control
- T/C [11]: 98 % of control

Structure (SMILES): Cc1c(Cl)ccc2c1NC(=O)C2(O)CC(=O)c1ccccc1 (centres undefined)
- T/C [12]: 99 % of control
- T/C [13]: 97 % of control
- T/C [14]: 99 % of control

Structure (SMILES): CN(CN(C)N=Nc1ccc(Br)cc1)CN(C)N=Nc1ccc(Br)cc1
- T/C [12]: 100 % of control
- T/C [13]: 92 % of control

Structure (SMILES): CCCCN(N=O)C(C)=O
- T/C [15]: 101 % of control
- T/C [16]: 98 % of control

Structure (SMILES): Cc1cc2cc3c4c(nn5cnnc5c4c2o1)-c1ccccc1CC3
- T/C [11]: 101 % of control
- T/C [17]: 104 % of control
- T/C [18]: 98 % of control

Structure (SMILES): COc1cc2c(cc1OC)-c1cccc3c1N(CC2)CC3
- T/C [19]: 100 % of control
- T/C [20]: 98 % of control
- T/C [15]: 100 % of control

Structure (SMILES): CN(C)CC#CCCCS(=O)(=O)c1ccccc1
- T/C [21]: 97 % of control
- T/C [22]: 99 % of control

Structure (SMILES): CC/C(=N\NS(=O)(=O)c1ccc(C)cc1)c1ccc(Br)c(Br)c1
- T/C [8]: 96 % of control
- T/C [9]: 100 % of control
- T/C [10]: 92 % of control

Structure (SMILES): CC(C)NC(=O)OCc1c(COC(=O)NC(C)C)c(S(=O)c2ccccc2)n2c1CCC2 (centres undefined)
- T/C (dose: 25.0 mg/kg/injection, schedule: Q01DX005 (ip), vehicle: distilled water + Tween-80): 113 % of control
- T/C (dose: 50.0 mg/kg/injection, schedule: Q01DX005 (ip), vehicle: distilled water + Tween-80): 110 % of control
- T/C (dose: 100.0 mg/kg/injection, schedule: Q01DX005 (ip), vehicle: distilled water + Tween-80): 113 % of control

Structure (SMILES): COCC1CCOC(C(C)C)O1 (centres undefined)
- T/C [21]: 101 % of control
- T/C [22]: 100 % of control
- T/C [23]: 100 % of control

Structure (SMILES): O=c1c2ccccc2nc(-c2ccccc2)n1-c1nccs1
- T/C [24]: 86 % of control
- T/C (dose: 100.0 mg/kg/injection, schedule: Q01DX005 (ip), vehicle: saline with Tween-80): 89 % of control
- T/C [25]: 91 % of control

Structure (SMILES): CCCCN(CCCC)P1(=O)OP(=O)(N(CCCC)CCCC)OP(=O)(N(CCCC)CCCC)O1 (centres undefined)
- T/C (dose: 12.5 mg/kg/injection, schedule: Q01DX005 (ip), vehicle: saline): 97 % of control
- T/C (dose: 25.0 mg/kg/injection, schedule: Q01DX005 (ip), vehicle: saline): 101 % of control
- T/C (dose: 50.0 mg/kg/injection, schedule: Q01DX005 (ip), vehicle: saline): 101 % of control and 96 % of control

Structure (SMILES): COc1cc2nn(-c3ccccc3N)nc2cc1OC
- T/C (dose: 60.0 mg/kg/injection, schedule: Q01DX005 (ip), vehicle: saline with Tween-80): 106 % of control
- T/C (dose: 120.0 mg/kg/injection, schedule: Q01DX005 (ip), vehicle: saline with Tween-80): 100 % of control
- T/C (dose: 240.0 mg/kg/injection, schedule: Q01DX005 (ip), vehicle: saline with Tween-80): 102 % of control

Structure (SMILES): C/C=C1\CN2C3CC45c6cc(OC)c(OC)cc6N(C)C4(O3)C2CC1C5(COC(=O)c1cc(OC)c(OC)c(OC)c1)C(=O)OC (centres undefined)
- T/C (dose: 11.5 mg/kg/injection, schedule: Q01DX005 (ip), vehicle: acid diluted with saline): 98 % of control
- T/C (dose: 23.0 mg/kg/injection, schedule: Q01DX005 (ip), vehicle: acid diluted with saline): 100 % of control
- T/C (dose: 46.0 mg/kg/injection, schedule: Q01DX005 (ip), vehicle: acid diluted with saline): 110 % of control
- T/C (dose: 92.0 mg/kg/injection, schedule: Q01DX005 (ip), vehicle: acid diluted with saline): 100 % of control

Structure (SMILES): C=CCOCN1c2cc(OC)c([C@@]3(C(=O)OC)C[C@@H]4CN(CCc5c3[nH]c3ccccc53)C[C@](O)(CC)C4)cc2[C@@]23CCN4CC=C[C@@](CC)([C@@H](OC(C)=O)[C@](O)(C(=O)OC)[C@H]12)[C@H]43
- T/C (dose: 1.0 mg/kg/injection, schedule: Q01DX001 (ip), vehicle: water): 109 % of control
- T/C (dose: 2.0 mg/kg/injection, schedule: Q01DX001 (ip), vehicle: water): 111 % of control
- T/C (dose: 4.0 mg/kg/injection, schedule: Q01DX001 (ip), vehicle: water): 115 % of control
- T/C (dose: 32.0 mg/kg/injection, schedule: Q01DX001 (ip), vehicle: other): 158 % of control

Structure (SMILES): CCCn1c2ccccc2c2c(C)c3cnccc3c(C)c21
- T/C (dose: 12.5 mg/kg/injection, schedule: Q04DX002 (ip), vehicle: saline with Tween-80): 100 % of control
- T/C [19]: 97 % of control
- T/C [20]: 94 % of control
- T/C [15]: 105 % of control

Structure (SMILES): Cc1cc(C)c[n+]([O-])c1
- T/C (dose: 12.5 mg/kg/injection, schedule: Q01DX009 (ip), vehicle: saline): 111 % of control
- T/C [7]: 111 % of control
- T/C [8]: 111 % of control

Structure (SMILES): O=[N+]([O-])c1ccc(/C=N/Nc2nnc(-c3ccccc3)c(-c3ccccc3)n2)o1
- T/C (dose: 12.5 mg/kg/injection, schedule: Q01DX005 (ip), vehicle: saline with Tween-80): 106 % of control
- T/C (dose: 25.0 mg/kg/injection, schedule: Q01DX005 (ip), vehicle: saline with Tween-80): 103 % of control
- T/C [24]: 93 % of control and 96 % of control
- T/C [25]: 88 % of control

Structure (SMILES): O=C(O)CNC1CCCCC1
- T/C [21]: 95 % of control
- T/C [22]: 92 % of control
- T/C [23]: 87 % of control

Structure (SMILES): O=C/C=C/N=c1ccn(O)cc1
- T/C [21]: 105 % of control
- T/C [22]: 100 % of control
- T/C [23]: 109 % of control

Structure (SMILES): O=C(O)C(Nc1ccccn1)(c1ccccc1)c1ccccc1
- T/C [12]: 102 % of control
- T/C [13]: 102 % of control
- T/C [14]: 98 % of control

Structure (SMILES): CC(=O)OCc1c([O-])on[n+]1-c1ccccc1
- T/C [11]: 100 % of control
- T/C [17]: 102 % of control
- T/C [18]: 102 % of control

Structure (SMILES): CCOC1OCN(CCCN(C)C)CC1(C)C (centres undefined)
- T/C [26]: 108 % of control
- T/C [4]: 123 % of control
- T/C [5]: 123 % of control

Structure (SMILES): COc1cc(C(=O)c2c(OC)cccc2C(=O)O)c(OC)cc1C
- T/C (dose: 25.0 mg/kg/injection, schedule: Q01DX009 (ip), vehicle: saline with Tween-80): 101 % of control
- T/C [26]: 105 % of control
- T/C [4]: 110 % of control
- T/C [5]: 99 % of control
- T/C [6]: 99 % of control

Structure (SMILES): COc1ccc2ccccc2c1C1=CC(c2ccccc2)C(c2cc(C)n(-c3ccccc3)n2)C(=O)N1 (centres undefined)
- T/C [15]: 101 % of control
- T/C [16]: 106 % of control

Structure (SMILES): Cc1cc(C#N)c[n+](C)c1
- T/C [21]: 108 % of control
- T/C [22]: 95 % of control
